Assay results from patent US6974799B2, “Compositions containing mixtures of tetrapeptides and tripeptides” (Sederma S.A.S., priority 2003, dated 2005).
No end group written: not given here. *: point of attachment. Oleoyl = CCCCCCCC/C=C\CCCCCCCC(=O)*; Palmitoyl = CCCCCCCCCCCCCCCC(=O)*

Tests used:
[1] = test system: Collagen I; test: Collagen I in supernatant of normal human skin fibroblasts, Elisa; type: cell-based; conditions: for Collagen I: Percentage of variation with respect to solvent: 3 × 10E−4% ascorbic acid, 3 days; for collagen I stimulation (in words): alone or in combination; for collagen I stimulation (in words) / effect on biomolecule synthesis under these experimental conditions (in words): Table 1 conditions
Method: In generating the data in Table 1, normal human skin fibroblasts were cultivated in 24 well-plates in DMEM with 10% of Fetal Calf Serum (“FCS”) during 24 h, then rinsed. The cells then received the products to be tested in a medium DMEM without FCS (“Fetal Calf Serum”) containing ascorbic acid. The contact of cells with product was carried out during 3 days, then supernatants was taken and frozen. Each test includes a negative control without solvent, a control solvent and a positive control (10^−6% of Transforming Growth Factor-β (“TGF-β”)). Each determination was carried out n=3. Several repetitions independent of the tests can be made. Assaying of the interesting molecules was carried out by Elisa (Collagen I & IV; Fibronectine) or by a colorimetric method (hyaluronic acid).
(§1) Normal human skin fibroblasts are cultivated in 24 well-plates in DMEM with 10% of FCS during 24 h, then rinsed. The cells then received the products to be tested in a medium DMEM without FCS containing ascorbic acid. The contact of cells with product was carried out during 3 days, then supernatants are taken and frozen. Each test included a negative control without solvent, a control solvent and a positive control (10^E-6% of TGF-β). Each determination was carried out n=3. Several repetitions independent of the tests were made. Assaying of the interesting molecules was carried out by Elisa (Collagen I & IV; Fibronectine) and by a calorimetric method (hyaluronic acid).

[2] = test system: Collagen IV; test: Collagen IV in supernatant of normal human skin fibroblasts, Elisa; type: cell-based; conditions: 3 × 10E−4% ascorbic acid, 3 days
Method: (§2) In generating the data in Table 1, normal human skin fibroblasts were cultivated in 24 well-plates in DMEM with 10% of Fetal Calf Serum (“FCS”) during 24 h, then rinsed. The cells then received the products to be tested in a medium DMEM without FCS (“Fetal Calf Serum”) containing ascorbic acid. The contact of cells with product was carried out during 3 days, then supernatants was taken and frozen. Each test includes a negative control without solvent, a control solvent and a positive control (10^−6% of Transforming Growth Factor-β (“TGF-β”)). Each determination was carried out n=3. Several repetitions independent of the tests can be made. Assaying of the interesting molecules was carried out by Elisa (Collagen I & IV; Fibronectine) or by a colorimetric method (hyaluronic acid). […] Higher concentrations were not tested because of cytotoxicity, and the other biomolecules were not assayed (n.t.=not tested) because of the lack of initial response in collagen I stimulation, which is the essential, primary parameter.
as §1

[3] = test system: Fibronectin; test: Fibronectin in supernatant of normal human skin fibroblasts, Elisa; type: cell-based; conditions: 3 × 10E−4% ascorbic acid, 3 days
Method: as §2, §1

[4] = test system: Hyaluronic Acid; test: Hyaluronic acid in supernatant of normal human skin fibroblasts, colorimetric method; type: cell-based; conditions: 3 × 10E−4% ascorbic acid, 3 days
Method: as §2, §1

[5] = test system: collagen; test: Increase in synthesis of collagen (in vitro), fibroblasts of human skin, ELISA; type: cell-based; conditions: 72 hours
Method: Fibroblasts of human skin are incubated for 72 hours in two culture mediums enriched in vitamin C (1.5 and 15 ppm), in the presence of the peptide N-palmitoyl-Gly-Gln-Pro-Arg (SEQ ID NO: 3) at two different concentrations, 2.5 ppm and 3.6 ppm. After this incubation, the media is collected and cell viability is evaluated by MTT assay. The measurement of collagen is then carried out by ELISA in each cell lysate. Tests were done in triplicate.
In parallel, negative controls should be carried out under the same conditions, but in the absence of the peptides.
The following results, shown in Table 2, give the increase of collagen synthesis compared to the results obtained in the blank tests (without peptide): […]

[6] = test system: collagen; conditions: background statement on EYELISS components; cited from earlier work

Substance: Acetyl-YGG
- Collagen I: Percentage of variation with respect to solvent ([1]; 1 ppm): −2%
- Collagen I: Percentage of variation with respect to solvent ([1]; 3 ppm): +5%
- Collagen I: Percentage of variation with respect to solvent ([1]; 5 ppm): −11%
- collagen I stimulation (in words) [1]: do not show collagen I stimulation

Substance: N-Palmitoyl-Gly-Gln-Pro-Arg (Palmitoyl-GQPR) [Pal GQPR, 500 ppm solution sold as RIGIN by SEDERMA]
- Collagen IV: Percentage of variation with respect to solvent ([2]; 0.5 ppm): +5%
- Collagen IV: Percentage of variation with respect to solvent ([2]; 1.5 ppm): −8%
- Collagen IV: Percentage of variation with respect to solvent ([2]; 2.5 ppm): −5%
- Collagen IV: Percentage of variation with respect to solvent ([2]; 3.64 ppm): −14%
- Fibronectin: Percentage of variation with respect to solvent ([3]; 0.5 ppm): +1%
- Fibronectin: Percentage of variation with respect to solvent ([3]; 1.5 ppm): +15%
- Fibronectin: Percentage of variation with respect to solvent ([3]; 2.5 ppm): +35%
- Fibronectin: Percentage of variation with respect to solvent ([3]; 3.64 ppm): +56%
- Hyaluronic Acid: Percentage of variation with respect to solvent ([4]; 0.5 ppm): −4%
- Hyaluronic Acid: Percentage of variation with respect to solvent ([4]; 1.5 ppm): +9%
- Hyaluronic Acid: Percentage of variation with respect to solvent ([4]; 2.5 ppm): −13%
- Hyaluronic Acid: Percentage of variation with respect to solvent ([4]; 3.64 ppm): −1%
- increase of collagen synthesis compared to blank tests (without peptide) ([5]; peptide 2.5 ppm, Vitamin C 1.5 ppm): +10%
- increase of collagen synthesis compared to blank tests (without peptide) ([5]; peptide 2.5 ppm, Vitamin C 15 ppm): +27%
- increase of collagen synthesis compared to blank tests (without peptide) ([5]; peptide 3.6 ppm, Vitamin C 1.5 ppm): +29%
- increase of collagen synthesis compared to blank tests (without peptide) ([5]; peptide 3.6 ppm, Vitamin C 15 ppm): +42%
- Collagen I: Percentage of variation with respect to solvent ([1]; 0.5 ppm): +4%
- Collagen I: Percentage of variation with respect to solvent ([1]; 1.5 ppm): −1%
- Collagen I: Percentage of variation with respect to solvent ([1]; 2.5 ppm): +19%
- Collagen I: Percentage of variation with respect to solvent ([1]; 2.5 ppm, listed as N-Palmitoyl-Gly-Gln-Pro-Arg): +19%
- Collagen I: Percentage of variation with respect to solvent ([1]; 3.64 ppm): +65%
- Collagen I: Percentage of variation with respect to solvent ([1]; 3.64 ppm, listed as tetrapeptide): +65%
- effect on biomolecule synthesis under these experimental conditions (in words) [1]: stimulating effect

Substance: N-Palmitoyl-Gly-His-Lys [Pal GHK]
- Collagen IV: Percentage of variation with respect to solvent ([2]; 1 ppm): +5%
- Collagen IV: Percentage of variation with respect to solvent ([2]; 3 ppm): −4%
- Collagen IV: Percentage of variation with respect to solvent ([2]; 5 ppm): +6%
- Collagen IV: Percentage of variation with respect to solvent ([2]; 7.3 ppm): −9%
- Fibronectin: Percentage of variation with respect to solvent ([3]; 1 ppm): +8%
- Fibronectin: Percentage of variation with respect to solvent ([3]; 3 ppm): +2%
- Fibronectin: Percentage of variation with respect to solvent ([3]; 5 ppm): −15%
- Fibronectin: Percentage of variation with respect to solvent ([3]; 7.3 ppm): +13%
- Hyaluronic Acid: Percentage of variation with respect to solvent ([4]; 1 ppm): +3%
- Hyaluronic Acid: Percentage of variation with respect to solvent ([4]; 3 ppm): +11%
- Hyaluronic Acid: Percentage of variation with respect to solvent ([4]; 5 ppm): 0%
- Hyaluronic Acid: Percentage of variation with respect to solvent ([4]; 7.3 ppm): −1%
- Collagen I: Percentage of variation with respect to solvent ([1]; 1 ppm): +9%
- Collagen I: Percentage of variation with respect to solvent ([1]; 3 ppm): −11%
- Collagen I: Percentage of variation with respect to solvent ([1]; 5 ppm): +11%
- Collagen I: Percentage of variation with respect to solvent ([1]; 5 ppm, listed as N-Palmitoyl-Gly-His-Lys): +11%
- Collagen I: Percentage of variation with respect to solvent ([1]; 7.3 ppm): −9%
- Collagen I: Percentage of variation with respect to solvent ([1]; 7.3 ppm, listed as tripeptide): reduction in synthesis
- effect on biomolecule synthesis under these experimental conditions (in words) [1]: essentially no effect

Substance: N-Palmitoyl-Lys-Thr-Thr-Lys-Ser (Palmitoyl-KTTKS) [Pal KTTKS, commercially successful pentapeptide, MATRIXYL, available from SEDERMA, reference compound]
- Collagen IV: Percentage of variation with respect to solvent ([2]; 1 ppm): +6%
- Collagen IV: Percentage of variation with respect to solvent ([2]; 2 ppm): +12%
- Collagen IV: Percentage of variation with respect to solvent ([2]; 4 ppm): +15%
- Collagen IV: Percentage of variation with respect to solvent ([2]; 8 ppm): +22%
- Fibronectin: Percentage of variation with respect to solvent ([3]; 1 ppm): +24%
- Fibronectin: Percentage of variation with respect to solvent ([3]; 2 ppm): +20%
- Fibronectin: Percentage of variation with respect to solvent ([3]; 4 ppm): +74%
- Fibronectin: Percentage of variation with respect to solvent ([3]; 8 ppm): +100%
- Hyaluronic Acid: Percentage of variation with respect to solvent ([4]; 1 ppm): +3%
- Hyaluronic Acid: Percentage of variation with respect to solvent ([4]; 2 ppm): +26%
- Hyaluronic Acid: Percentage of variation with respect to solvent ([4]; 4 ppm): +28%
- Hyaluronic Acid: Percentage of variation with respect to solvent ([4]; 8 ppm): +31%
- Collagen I: Percentage of variation with respect to solvent ([1]; 1 ppm): +8%
- Collagen I: Percentage of variation with respect to solvent ([1]; 2 ppm): +30%
- Collagen I: Percentage of variation with respect to solvent ([1]; 4 ppm): +48%
- Collagen I: Percentage of variation with respect to solvent ([1]; 8 ppm): +93%

Substance: Oleoyl-RGD
- Collagen I: Percentage of variation with respect to solvent ([1]; 1 ppm): +5%
- Collagen I: Percentage of variation with respect to solvent ([1]; 3 ppm): −3%
- collagen I stimulation (in words) [1]: do not show collagen I stimulation

Substance: Oleoyl-RGDS [oleoyl derivative of RGDS=Arg-Gly-Asp-Ser]
- Collagen I: Percentage of variation with respect to solvent ([1]; 1 ppm): −7%
- Collagen I: Percentage of variation with respect to solvent ([1]; 3 ppm): −2%
- collagen I stimulation (in words) [1]: do not show collagen I stimulation

Substance: Pal-YGGF (Palmitoyl-YGGF) [palmitoyl derivative of YGGF=Tyr-Gly-Gly-Phe, fragment of enkephaline]
- Collagen I: Percentage of variation with respect to solvent ([1]; 1 ppm): +5%
- Collagen I: Percentage of variation with respect to solvent ([1]; 3 ppm): −6%
- Collagen I: Percentage of variation with respect to solvent ([1]; 5 ppm): +4%
- collagen I stimulation (in words) [1]: do not show collagen I stimulation

Substance: Transforming Growth Factor-β [TGF-β, reference compound]
- Collagen IV: Percentage of variation with respect to solvent ([2]; 10^E−6%): +4%
- Fibronectin: Percentage of variation with respect to solvent ([3]; 10^E−6%): +176%
- Hyaluronic Acid: Percentage of variation with respect to solvent ([4]; 10^E−6%): +43%

Substance: Val-Trp
- collagen stimulating activity (in words) [6]: no significant collagen stimulating activity
